Test in all cases: growth of human tumour cells (NCI), 48 h
Assay [1] concerns K562.
Assay [2] has as its system KM12.
The test system of assay [3] is HCC 2998.
Assay [4] relates to U-251.
In assay [5] the test system is OVCAR-8.
The test system of assay [6] is SNB-75.
Assay [7] has as its system IGROV-1.
Assay [8] concerns CCRF-CEM.
Assay [9] concerns SN12C.
For assay [10], the system named is A549.
Assay [11] relates to SK-MEL-28.
In assay [12] the test system is HCT-116.
In assay [13] the test system is SF-539.
Assay [14] has as its system RPMI-8226.
Assay [15] deals with SF-268.

SMILES strings stand for the structures.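 Values below derive from 48-hour exposures of cells grown in 96-well plates, with endpoints linearly interpolated between the two concentrations bracketing the appropriate inhibition level. The concentration for 50% growth inhibition is given as GI50.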 Calls of active or inactive are those of the source. Cut-off read from the data, not from the text of the source: active = GI50 up to about 1.1 µM and inactive = higher. Some results are limits rather than exact numbers.

On to `O=C1C=C(c2ccccc2)NC1(c1ccccc1)c1cc(-c2ccccc2)[nH]c1-c1ccccc1` (centres undefined), for which the GI50 in [1], in [2], in assay [3], in assay [4], in assay [5] and in assay [6] was > 100 µM (inactive) each time. In addition, the GI50 in [7], in assay [8], in assay [9], in assay [10], in assay [11] and in [12] was > 100 µM (inactive) in each case. The GI50 in assay [13] is > 100 µM (inactive).
For the compound `CCC1=C(CC)C1(C#N)[N+](=O)[O-]`, the GI50 in assay [14] is 82.2 µM (inactive); in assay [1], > 100 µM (inactive); in assay [2], > 100 µM (inactive); in assay [4] it was > 100 µM (inactive); in [5], > 100 µM (inactive); in assay [7] it was > 100 µM (inactive). The GI50 in [8], in [9], in assay [10], in [12], in [13] and in assay [15] was > 100 µM (inactive) each time.
Regarding `CCOC(=O)C1=C(C)N(Cc2ccccc2)C(=O)C1CC#N` (centres undefined), the GI50 was 99.8 µM (inactive) in [14]; 70.3 µM (inactive) in assay [1]; > 100 µM (inactive) in assay [2]; > 100 µM (inactive) in assay [3]; > 100 µM (inactive) in assay [4]; 83.9 µM (inactive) in [5]. Further, the GI50 in assay [6] is 55.2 µM (inactive); in [7] it was > 100 µM (inactive); in assay [8], 31.6 µM (inactive); in assay [9], > 100 µM (inactive); in assay [10] it was > 100 µM (inactive); in assay [11], > 100 µM (inactive). Also, the GI50 in [12] and in [13] was > 100 µM (inactive) each time.
For the compound `CCCCCCCCCCCCCP(=O)(NCC(N)=O)OCC` (centres undefined), the GI50 in assay [2] was 18.4 µM (inactive); in assay [3], 20.2 µM (inactive); in assay [4], 17.3 µM (inactive); in assay [5], 21.4 µM (inactive); in assay [6], 5.31 µM (inactive); in assay [7], 18.5 µM (inactive). Also, the GI50 in assay [8] is 22.6 µM (inactive); in [9] it was 18.3 µM (inactive); in assay [10] it was 20.3 µM (inactive); in assay [11], 18.2 µM (inactive); in [12], 14.8 µM (inactive); in [13] it was 17.4 µM (inactive). Besides, the GI50 in assay [15] was 19.1 µM (inactive).
`CC(=O)C1CC2(c3ccccc3)C(=O)c3ccccc3N2O1` (centres undefined): the GI50 in assay [14], in assay [1], in assay [3], in assay [4], in [5] and in [6] was > 100 µM (inactive) each time. Moreover, the GI50 in assay [7], in assay [8], in [9], in assay [10], in [11] and in [12] was > 100 µM (inactive) throughout. The GI50 in [13] and in [15] was > 100 µM (inactive) throughout.
Regarding `COCC(C)(C)/N=C/N1Cc2cc3ccccc3nc2C1`, the GI50 in [14], in assay [1], in assay [2], in assay [4], in assay [5] and in [6] was > 100 µM (inactive) in each case. Besides, the GI50 in assay [7], in assay [8], in [9], in [10], in [11] and in assay [12] was > 100 µM (inactive) throughout. The GI50 in assay [13] and in assay [15] was > 100 µM (inactive) in each case.
Turning to `CC(=O)N(C(C)=O)c1c(N)n(C)c(=O)[nH]c1=O`, the GI50 in [14], in assay [1], in [2], in assay [3], in [5] and in assay [7] was > 100 µM (inactive) throughout. In addition, the GI50 in assay [8], in assay [9], in [10], in assay [11], in assay [12] and in assay [13] was > 100 µM (inactive) each time. The GI50 in assay [15] is > 100 µM (inactive).
Take `COC1=C(C(=O)OC(C)(C)C)[C@]2(C)C(C(=O)OC(C)(C)C)C(OC)=C(C(=O)OC(C)(C)C)[C@]2(C)C1C(=O)OC(C)(C)C` (some centres undefined): the GI50 in assay [14] was 31.3 µM (inactive); in assay [1], 37.5 µM (inactive); in assay [2] it was 79.1 µM (inactive); in assay [3], > 100 µM (inactive); in assay [4], > 100 µM (inactive); in [5], > 100 µM (inactive). Moreover, the GI50 in assay [6] is > 100 µM (inactive); in assay [7], > 100 µM (inactive); in [8], 73.8 µM (inactive); in assay [9] it was > 100 µM (inactive); in [10] it was > 100 µM (inactive); in [12] it was 96.4 µM (inactive). For the same compound, the GI50 in [13] and in assay [15] was > 100 µM (inactive) each time.
Consider `Cn1c(=O)c2c(nc(C[N+]3([O-])CCOCC3)n2C)n(C)c1=O`, for which the GI50 in assay [14], in assay [1], in [2], in assay [3], in [4] and in assay [5] was > 100 µM (inactive) throughout. For the same compound, the GI50 in assay [6] is 63.5 µM (inactive); in assay [7], > 100 µM (inactive); in assay [8], > 100 µM (inactive); in assay [9], > 100 µM (inactive); in assay [10] it was > 100 µM (inactive); in assay [11], > 100 µM (inactive). Also, the GI50 in assay [12] is 7.98 µM (inactive); in [13] it was > 100 µM (inactive); in [15] it was > 100 µM (inactive).
As to `CC12C(=O)N(CCN)C(=O)C1C1c3ccccc3C2c2ccccc21` (centres undefined), the GI50 in assay [14], in assay [1], in assay [2], in assay [3], in assay [4] and in assay [5] was > 100 µM (inactive) in each case. For the same compound, the GI50 in assay [6] was 37.3 µM (inactive); in assay [7], > 100 µM (inactive); in assay [8] it was > 100 µM (inactive); in assay [9], > 100 µM (inactive); in assay [10], > 100 µM (inactive); in [11], > 100 µM (inactive). Further, the GI50 in assay [12], in [13] and in assay [15] was > 100 µM (inactive) throughout.
With `Cn1c2ccccc2n2c(=O)c3c(c(C#N)c12)CCCC3`, the GI50 in assay [14], in assay [1], in [2], in [3], in [4] and in [5] was > 100 µM (inactive) in each case. Also, the GI50 was 0.792 µM (active) in assay [6]; > 100 µM (inactive) in assay [7]; > 100 µM (inactive) in assay [9]; > 100 µM (inactive) in assay [10]; > 100 µM (inactive) in assay [11]; > 100 µM (inactive) in assay [12]. For the same compound, the GI50 in [13] and in assay [15] was > 100 µM (inactive) throughout.
On to `Nc1ccc(Nc2nc(F)nc(-c3c4ccccc4c4n3CCS4)n2)cc1`, for which the GI50 is > 10 µM (inactive) in assay [1]; 10.9 µM (inactive) in assay [2]; 22 µM (inactive) in assay [3]; 14.7 µM (inactive) in assay [4]; 16.8 µM (inactive) in assay [5]; 14.9 µM (inactive) in [6]. Besides, the GI50 is 12.4 µM (inactive) in [7]; 6.56 µM (inactive) in [8]; 15.5 µM (inactive) in assay [9]; 10.5 µM (inactive) in [10]; 15.8 µM (inactive) in [11]; 14.6 µM (inactive) in assay [12]. The GI50 in [13] is 13.4 µM (inactive); in [15], 15.7 µM (inactive).
Consider `Cc1cc(Cl)ccc1NC1=NC(=O)C(CC(=O)Nc2ccc([N+](=O)[O-])cc2[N+](=O)[O-])S1` (centres undefined), for which the GI50 is 17.9 µM (inactive) in [14]; 27.6 µM (inactive) in assay [1]; 35.1 µM (inactive) in [2]; 39.6 µM (inactive) in assay [3]; 23.3 µM (inactive) in [4]; 34.1 µM (inactive) in assay [5]. For the same compound, the GI50 in assay [6] is 14.5 µM (inactive); in [7], 32.3 µM (inactive); in [8] it was 23.4 µM (inactive); in assay [9], 26.9 µM (inactive); in assay [10], 27.5 µM (inactive); in assay [11] it was 36.8 µM (inactive). The values for the GI50 in [13] and in assay [15] were 24.3 µM (inactive) and 38 µM (inactive), respectively.
For the compound `Cc1c(C(=O)/C=C/c2ccc3c(c2)OCO3)[n+]([O-])c2ccccc2[n+]1[O-]`, the GI50 in [14] was 27 µM (inactive); in assay [1], 33 µM (inactive); in assay [2], 31.9 µM (inactive); in assay [3], 23.1 µM (inactive); in assay [4] it was 30.3 µM (inactive); in assay [5], 23.8 µM (inactive). Besides, the GI50 in assay [6] was 26.1 µM (inactive); in [7], 34.6 µM (inactive); in assay [8] it was 32.9 µM (inactive); in assay [9], 23 µM (inactive); in assay [10] it was 32.7 µM (inactive); in assay [11] it was 61 µM (inactive). Also, the GI50 in assay [12] was 29.4 µM (inactive); in assay [13], 22.5 µM (inactive); in [15] it was 52.6 µM (inactive).

Source of the values: ChEMBL document CHEMBL1201862, “PubChem BioAssay data set” (2004).
